Target: T1, tRNA-2-selenouridine synthase (SelU, MnmH) (Escherichia coli, UniProt Q0TKD8)
T1 construct: M1-A172 (N-terminal rhodanese domain; tags removed with TEV)
Assay: intrinsic tryptophan fluorescence quenching titration (Kd at […] °C; […] at […] °C, […] at […] °C, […] at […] °C); STD NMR
Type: binding

T1 sequence (Q0TKD8 1-172): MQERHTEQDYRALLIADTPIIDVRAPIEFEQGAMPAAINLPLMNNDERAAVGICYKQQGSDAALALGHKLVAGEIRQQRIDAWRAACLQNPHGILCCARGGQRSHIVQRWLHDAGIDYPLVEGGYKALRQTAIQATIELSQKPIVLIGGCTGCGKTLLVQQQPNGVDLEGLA

In the case of `CC(C)=CCC/C(C)=C/COC[C@H]1O[C@@H](n2ccc(=O)[nH]c2=O)[C@H](O)[C@@H]1O` [simamycin], the Kd is reported as 29.9 µM.
